Measurements taken from patent US10590166B2, “Peptides useable for treating cancer” (Allegro Pharmaceuticals, LLC, priority 2009, dated 2020).

Tests used:
New Zealand Rabbits = assay: Ocular toxicity of intravitreal Compound 1 with and without urea (Table A); type: in vivo; details: single intravitreal injection, 24 hour follow up, 8 eyes per group
[1] = system: human umbilical vein endothelial cells (HUVEC); assay: wound-healing assay with HUVEC on fibronectin coated surface; type: cell-based
Experimental: To test the anti-adhesive properties of RGCysteic Acid peptides in vitro, a wound-healing assay was performed with human umbilical vein endothelial cells (HUVEC). HUVEC were seeded and allowed to grow to a confluent monolayer on a fibronectin coated surface. A wound (a scratch rift) was created by dragging a small pipette tip across the HUVEC monolayer. The cells were then incubated in fresh growth medium containing the RGCysteic Acid peptide (Compound 1; 10 mM), and the wound area was imaged in five different fields at various time points (0, 4, 8, 12, 16, 20, 24 hours) to determine the kinetics of wound closure. The level of wound closure was quantified by determining the fraction of the original wound area that was re-occupied by HUVEC through cellular adhesion, migration and proliferation.
In control studies, the following peptides were used in place of RGCysteic Acid (Compound 1): cyclic-RGD peptide (1 mM), positive control) and RGE peptide (1 mM, negative control).
The results are shown as a percentage of the original area. The error bars correspond to the standard deviation in wound size across 2-6 independent trials.

rho/VEGF mice = assay: Subretinal neovascularization in transgenic rho/VEGF mice expressing human VEGF; type: in vivo; details: 10 μg, single intraocular injection, seven days post-dose, 3 animals
Experimental: Transgenic mice in which the rhodopsin promoter drives expression of human VEGF in photoreceptors (rho/VEGF mice) were randomized into separate treatment groups and studies were performed to provide the following comparisons:
Pretreatment measurements of the area of subretinal neovascularization were made on each animal using image analysis by a masked observer. Each animal received its designated treatment in a single intraocular injection. Seven days post-dose, measurements of the area of subretinal neovascularization were again made and compared to the pre-dose measurements to determine the change in subretinal neovascularization area. Also, the animals were sacrificed and the retinas were dissected, immunostained with GSA lectin and examined by fluorescence microscopy.

## NC(N)=O [12% Urea solution, Urea, reference compound]
New Zealand Rabbits
  Total PVD: 0% Total PVD
  Vitreous liquefaction: No liquefaction

## CC(C)[C@H]1C(=O)N[C@@H](CCCN=C(N)N)C(=O)NCC(=O)N[C@@H](CC(=O)O)C(=O)N[C@H](Cc2ccccc2)C(=O)N1C [Cyclic RGD, N-methylated cyclic-RGDf-N(Me)V, reference compound]
[1]; HUVEC wound healing model, in 12 hours
  inhibition of cell adhesion: 40%
[1]; after 24 hours, Compound 1 10 mM, control peptides 1 mM
  inhibition of HUVEC wound healing: 45%

B1: ranibizumab: recombinant humanized IgG1 kappa isotype monoclonal antibody fragment (antibody, chains of the INN, looked up, V domains shown)
VH: EVQLVESGGGLVQPGGSLRLSCAASGYDFTHYGMNWVRQAPGKGLEWVGWINTYTGEPTYAADFKRRFTFSLDTSKSTAYLQMNSLRAEDTAVYYCAKYPYYYGTSHWYFDVWGQGTLVTVSS
VL: DIQLTQSPSSLSASVGDRVTITCSASQDISNYLNWYQQKPGKAPKVLIYFTSSLHSGVPSRFSGSGSGTDFTLTISSLQPEDFATYYCQQYSTVPWTFGQGTKVEIK
modifications: Fab
notes: recombinant humanized IgG1 kappa isotype monoclonal antibody fragment
rho/VEGF mice
  greater reduction in subretinal neovascularization area than control animals (Phosphate Buffered Saline): 38.96%
